The nature of data set [1]: stability in aqueous solutions. It is filed as physicochemical.
A short description of data set [2]: solubility in water (stirred 18 hours, filtrate analyzed by HPLC).
Experimental: (§1) After stirring, supernatant was filtered by a membrane filter (0.45,μm) and a filtate was analyzed by HPLC.
(§2) Colum: Taxil 5μ (4.6×250 mm), made by MetaChem
Solvent: MeOH/H2 O (80/20)
Detector: photodiode detector (230 nm)
The subject of data set [3] is tubulin. The experiment in a line: microtubule depolymerization-inhibiting activity (absorbance at 350 nm after adding calcium chloride). The data set is classed as biochemical. Particulars: relative to paclitaxel; 5 μM. How it is done:
Next, each of the above-described samples is mixed with tubulin (a main constituting protein of microtubule) and allowed to react at 37° C. for 15 minutes. Absorbance at 350 nm of the reaction solution was measured at 2, 5, 10 and 15 minutes after initiation of the reaction. Also, after the reaction ended, calcium chloride was added and, 5 minutes after this adding, absorbance at 350 nm was again measured. From each measured value was determined relative activity of each sample in the case that polymerization-promoting activity and depolymerization-inhibiting activity were taken as 100, and the results are shown in Table 2.

For data set [4] the following is noted: water, 18 h.
Experimental: as §1, §2
Solvent: MeOH/H2 O (80/20)
Detector: photodiode detector (230 nm)
For data set [5] the following is noted: literature, I. Ringer et al.; cited from earlier work.

Values after ≈ are worked out from the molar mass of the structure shown.

Regarding `CC(=O)O[C@H]1C(=O)[C@]2(C)[C@@H](OC(=O)COC3O[C@H](CO)[C@@H](O)[C@H](O)[C@H]3O)C[C@H]3OC[C@@]3(OC(C)=O)[C@H]2[C@H](OC(=O)c2ccccc2)[C@]2(O)C[C@H](OC(=O)[C@H](OC(=O)COC3O[C@H](CO)[C@@H](O)[C@H](O)[C@H]3O)[C@@H](NC(=O)c3ccccc3)c3ccccc3)C(C)=C1C2(C)C` (some centres unmarked) [2',7-S-paclitaxel, Diglucosyloxyacetyl-2',7-paclitaxel], in data set [1], the “stability in aqueous solutions” value was “decomposed to paclitaxel in aqueous solutions and unstable in aqueous solutions”. For the same compound, in data set [2], the concentration in solution (solubility at 18 h) was 0.0484 mg/mL (≈ 37.4 µM).
For the compound `CC(=O)O[C@H]1C(=O)[C@@]2(C)[C@H]([C@H](OC(=O)c3ccccc3)[C@]3(O)C[C@H](OC(=O)[C@H](OC(=O)COC4O[C@H](CO)[C@@H](O)[C@H](O)[C@H]4O)[C@@H](NC(=O)c4ccccc4)c4ccccc4)C(C)=C1C3(C)C)[C@]1(OC(C)=O)CO[C@@H]1C[C@@H]2O` (some centres unmarked) [2'-S-paclitaxel, Glucosyloxyacetyl-2'-paclitaxel], in data set [1], the “stability in aqueous solutions” value is “decomposed to paclitaxel in aqueous solutions and unstable in aqueous solutions”. Besides, the solubility – broadly, the concentration that dissolves in the medium under given conditions – at 18 h in data set [2] worked out at 0.0306 mg/mL (≈ 28.5 µM).
Regarding `CC(=O)O[C@H]1C(=O)[C@]2(C)[C@@H](OC(=O)COC3O[C@H](CO)[C@@H](O)[C@H](O)[C@H]3O)C[C@H]3OC[C@@]3(OC(C)=O)[C@H]2[C@H](OC(=O)c2ccccc2)[C@]2(O)C[C@H](OC(=O)[C@H](O)[C@@H](NC(=O)c3ccccc3)c3ccccc3)C(C)=C1C2(C)C` (some centres unmarked) [7-S-paclitaxel, Glucosyloxyacetyl-7-paclitaxel], the “depolymerization-inhibiting activity compared with paclitaxel (in words)” value in data set [3] is reported as “more than twice as potent as that of paclitaxel”. For the same compound, the solubility at 18 h in data set [2] is 0.0147 mg/mL (≈ 13.7 µM).
As for `CC(=O)O[C@H]1C(=O)[C@@]2(C)[C@H]([C@H](OC(=O)c3ccccc3)[C@]3(O)C[C@H](OC(=O)[C@H](O)[C@@H](NC(=O)c4ccccc4)c4ccccc4)C(C)=C1C3(C)C)[C@]1(OC(C)=O)CO[C@@H]1C[C@@H]2O` [Paclitaxel, paclitaxel], the Solubility (as a rule, the dissolved amount per volume that the medium holds) in data set [4] turned out to be 0.0004 mg/mL (≈ 0.468 µM).
With `CC(=O)O[C@@]12CO[C@@H]1C[C@H](O)[C@@]1(C)C(=O)[C@H](O)C3=C(C)[C@@H](OC(=O)[C@H](O)[C@@H](NC(=O)OC(C)(C)C)c4ccccc4)C[C@@](O)([C@@H](OC(=O)c4ccccc4)[C@H]21)C3(C)C` [docetaxel], the “solubility in water relative to paclitaxel” value in data set [5] is 1.3 times.

The values above are taken from US5767297A, “Taxoid derivative and method of producing thereof” (Ensuiko Sugar Refining Co., Ltd., priority 1997, dated 1998).
